Laboratory results from publication PMC11232401, “Characterization of antimalarial activity of artemisinin-based hybrid drugs” (Antimicrobial Agents and Chemotherapy, 2024).
Where two headings read alike, the source gives them in different places.

Experiments:
[1] = tested on: quiescent ART-resistant parasites (F32-ART); assay: Quiescent-stage survival assay (QSA); format: cell-based, Plasmodium falciparum; settings: for Recrudescence time in days (median; range), Quiescent parasites (QSA) DHA / DHA + drug: then DHA plus 700 nM drug 48 h (condition B); for delay of recrudescence in the QSA versus DHA alone: threshold of activity 6 days
Description: The QSA was performed as previously described to determine the drug activity on quiescent ART-resistant parasites ([11]). F32-ART culture parasites were synchronized at the ring stage and adjusted to 3% parasitemia and 2% hematocrit. […] At the end of treatment, parasites from each of the three conditions were washed with RPMI-1640 medium and replaced in new wells in a drug-free culture medium with 10% human serum. Parasitemia was determined daily by thin blood smears until the cultures reached their initial parasitemia (3%), which was defined as the recrudescence day ([11]). The recrudescence capacity of parasites exposed in conditions A and B was compared to determine whether the drug was active on quiescent parasites. Condition C was designed to check that the concentration at which the drug was tested acted on proliferating parasites. If no parasite recrudescence was observed, the experiment was stopped.

[2] = tested on: NF54 strain of P. falciparum; assay: Ring-stage-specific drug activity (pLDH); format: cell-based; settings: Plasmodium falciparum, median ± SEM
Description: Each compound was dissolved in dimethyl sulfoxide (DMSO) and diluted in RPMI-1640 medium into seven different concentrations, which were tested against CQ-susceptible strains (NF54 or D10) or a CQ-resistant strain (W2). Each well of 96-well plates was filled with 100 µL drug and 100 µL parasitized RBC (asynchronous parasite culture), which were mixed to obtain a final parasitemia of 1.0% to 1.5% and 1.0% hematocrit. Plates were incubated for 72 h at 37°C in a standard gas mixture; then, parasite growth was determined by measuring the activity of the parasite lactate dehydrogenase (pLDH) ([38]). Briefly, at the end of incubation, the cultures were carefully resuspended, and 20 µL aliquots were removed and added to 100 µL Malstat reagent in a 96-well microplate. The Malstat reagent is made of 0.125% TritonX-100, 130 mM L-lactate, 30 mM Tris buffer, and 0.62 µM 3-acetylpyridine adenine dinucleotide. After that, 20 µL 1.9 µM nitro blue tetrazolium (NBT) and 0.24 µM phenazine ethyl sulfate were added to the plate. NBT was reduced to blueformazan and spectrophotometrically read at OD 650 nm using a Synergy 4 microplate reader (BioTek, Santa Clara, USA). […] IC50 values were expressed as means of two to three independent experiments, with each drug concentration in duplicate.
The NF54 strain of P. falciparum was employed to test the drugs’ activity against ring stages and asynchronous parasite culture (all stages). The ring stages were obtained by synchronization with D-Sorbitol using a standard method ([39]). Each well of 96-well plates was filled with 100 µL each drug and 100 µL culture containing ring-stage or asynchronous parasites, which were mixed to obtain a final parasitemia of 1.0% to 1.5% and 1.0% hematocrit. […] Plates were processed using the pLDH method, and IC50 values were calculated as described above. At least two to three independent experiments were performed, using two technical replicates.
^[a] Synchronized ring-stage parasites were incubated in the presence of compounds for 6 h, drugs were removed by washing, and plates were incubated for an additional 66 h. ^[b] Asynchronous parasites were incubated in the presence of compounds for 6 h, drugs were removed by washing, and plates were incubated for an additional 66 h. ^[c] Asynchronous parasites were incubated in the presence of compounds for 72 h. ^[a,b^] Experiments were performed in parallel. ^[d] […] Parasite viability was determined by parasite lactate dehydrogenase. Data are from three experiments performed in duplicate. MFQ = mefloquine; DHA = dihydroartemisinin; SEM = standard error of the mean.

[3] = tested on: Asynchronous NF54 strain of P. falciparum; assay: Speed of drug activity (pLDH); format: cell-based, Plasmodium falciparum; settings: for IC50: Plasmodium falciparum, NF54, asynchronous, mean (95% CI); for Conclusion (speed of antiparasitic activity): from IC50 at 24, 48, 72 h
Description: Each well of 96-well plates was filled with 100 µL drug and 100 µL culture containing asynchronous P. falciparum (NF54 strain) parasites, which were mixed to obtain a final parasitemia of 1.0% to 1.5% and 1.0% hematocrit. The plates were incubated for 24, 48, and 72 h at 37°C with a standard gas mixture. […] Parasite viability was measured using the pLDH method, and IC50 values were calculated as described above. Three independent experiments were performed using two technical replicates.
Figure S3: Speed of antiparasitic activity of hybrids (1) and (2) against CQ-sensitive NF54 strain of P. falciparum. Panel A: Representative response-concentration curves. Panel B: A table summarizing the results. Footnotes for table: ^[a] Parasite viability was accessed at each indicated time (24, 48, or 72 h) after addition of drugs. Values are the mean and 95% confidence interval of one experiment using each concentration of compounds in duplicate. Parasite viability was determined by parasite lactate dehydrogenase (pLDH) assay. DHA = dihydroartemisinin; ATO = atovaquone.

[4] = tested on: F32-TEM (sensitive) early ring-stage parasites; assay: Ring-stage survival assay (RSA0-3h); format: cell-based, Plasmodium falciparum; settings: 700 nM, 6 h pulse, 66 h growth
Description: Early ring-stage parasites (0–3 h post-invasion) of F32-ART and F32-TEM strains highly synchronized by Percoll-Sorbitol treatment were exposed to 700 nM of the drugs or 0.1% DMSO (control) for 6 h. Each drug was tested in duplicate. Parasite pellets were then washed in RPMI-1640 medium before being placed in drug-free culture conditions with 10% human serum and incubated for 66 h ([44]). Survival rates were assessed microscopically by two independent microscopists by counting the parasites in 10,000 RBCs. Three independent experiments were performed.

[5] = asynchronous parasites, 6 h drug, wash, additional 66 h, read-out: IC50, Asynchronous
[6] = asynchronous parasites, 72 h continuous drug, read-out: IC50, 72 h
[7] = synchronized ring stages, 6 h drug, wash, additional 66 h, read-out: IC50, Ring stages
[8] = viability at 24 h, read-out: IC50, 24 h
[9] = viability at 48 h, read-out: IC50, 48 h
[10] = viability at 72 h, read-out: IC50, 72 h

Structure (SMILES) | Recrudescence time in days (median; range), Quiescent parasites (QSA) DHA / DHA ([1]; 700 nM DHA 6 h, then DHA alone 48 h (condition A)) | IC50 [2, 5] [nM] | IC50 [2, 6] [nM] | IC50 [2, 7] [nM] | IC50 [3, 8] [nM] | IC50 [3, 9] [nM] | IC50 [3, 10] [nM] | Conclusion (speed of antiparasitic activity) [3] | Survival rate (%) from the RSA0-3h, F32-TEM (sensitive) [4] [%] | Recrudescence time in days (median; range), Quiescent parasites (QSA) DHA / DHA + drug ([1]; 700 nM DHA 6 h) | delay of recrudescence in the QSA versus DHA alone [1] [days]
C[C@H]1[C@@H](O)O[C@@H]2O[C@@]3(C)CC[C@H]4[C@H](C)CC[C@@H]1[C@@]24OO3 [DHA, dihydroartemisinin, reference compound] | 8.5 (8–9) days | 4.6 ± 0.9 | 2.1 ± 0.6 | 5 ± 0.5 | 8.3 | 2.9 | 2.7 | Fast-acting | 0.04 ± 0.03 |  | 
CC1CCC2C(C)C(OC(=O)CCC(=O)OCCNc3ccnc4cc(Cl)ccc34)OC3OC4(C)CCC1C32OO4 (centres unmarked) [Hybrid 2] |  | 19.1 ± 1.8 | 8.1 ± 1 | 9 ± 1.5 | 9.4 | 4.3 | 5.6 | Fast-acting | 0.04 ± 0.02 | 9 (8–10) days | 3
COCCOCCOCCOCCn1c(-c2ccc(-n3cc(-c4ccc(OC5OC6OC7(C)CCC8C(C)CCC(C5C)C68OO7)cc4)nn3)cc2)nc2ccccc21 (centres unmarked) [Hybrid 1] |  | 3.5 ± 0.3 | 3 ± 0.3 | 1.5 ± 0.3 | 2.4 | 3 | 2 | Fast-acting | 0.05 ± 0.03 | 11.5 (11–12) days | 0.5
